Laboratory results from article PMC5218480 (PLoS ONE, 2017).

Tested on: MV-4-11 cells
Experiment: Gene expression microarray analysis (Affymetrix PrimeView) and GSEA
Format: cell-based, human
Set-up: RFU PODN (11730768_x_at) / Fold change /veh PODN (11730768_x_at) / RFU LINC00158 (11744669_a_at) / Fold change /veh LINC00158 (11744669_a_at) / RFU DUSP10 (11751237_a_at) / Fold change /veh DUSP10 (11751237_a_at) / RFU ID3 (11757404_x_at) / Fold change /veh ID3 (11757404_x_at) / RFU PLEKHG5 (11737974_s_at) / Fold change /veh PLEKHG5 (11737974_s_at) / RFU LRRC4B (11730491_at) / Fold change /veh LRRC4B (11730491_at) / RFU GIMAP4 (11747438_a_at) / Fold change /veh GIMAP4 (11747438_a_at) / RFU KRT8 (11758183_x_at) / Fold change /veh KRT8 (11758183_x_at) / RFU CNN1 (11734310_a_at) / Fold change /veh CNN1 (11734310_a_at) / RFU VPS37D (11726825_at) / Fold change /veh VPS37D (11726825_at) / RFU C10orf10 (11716522_x_at) / Fold change /veh C10orf10 (11716522_x_at) / RFU KIR2DL2 /// KIR2DL4 /// KIR2DL5A /// KIR2DL5B /// KIR2DS1 /// KIR2DS2 /// KIR2DS3 /// KIR2DS4 /// KIR3DL3 /// KIR3DL3 /// KIR3DS1 (11738374_at) / Fold change /veh KIR2DL2 /// KIR2DL4 /// KIR2DL5A /// KIR2DL5B /// KIR2DS1 /// KIR2DS2 /// KIR2DS3 /// KIR2DS4 /// KIR3DL3 /// KIR3DL3 /// KIR3DS1 (11738374_at) / RFU C1QL1 (11718748_at) / Fold change /veh C1QL1 (11718748_at) / RFU TMPRSS4 (11747572_a_at) / Fold change /veh TMPRSS4 (11747572_a_at) / RFU HAMP (11756126_x_at) / Fold change /veh HAMP (11756126_x_at) / RFU RNFT2 (11725882_a_at) / Fold change /veh RNFT2 (11725882_a_at) / RFU NR4A2 (11747474_a_at) / Fold change /veh NR4A2 (11747474_a_at) / RFU ABCC12 (11746883_a_at) / Fold change /veh ABCC12 (11746883_a_at) / RFU TMEM136 (11760407_x_at) / Fold change /veh TMEM136 (11760407_x_at) / RFU CLDN22 /// WWC2 (11732394_at) / Fold change /veh CLDN22 /// WWC2 (11732394_at) / RFU HLA-DPB1 (11760878_x_at) / Fold change /veh HLA-DPB1 (11760878_x_at) / RFU SPINT1 (11716480_a_at) / Fold change /veh SPINT1 (11716480_a_at) / RFU GAP43 (11754022_s_at) / Fold change /veh GAP43 (11754022_s_at) / RFU A4GNT (11735810_at) / Fold change /veh A4GNT (11735810_at) / RFU PRB3 (11715151_x_at) / Fold change /veh PRB3 (11715151_x_at) / RFU TUBB4B (11761932_at) / Fold change /veh TUBB4B (11761932_at) / RFU CAPN14 (11732068_a_at) / Fold change /veh CAPN14 (11732068_a_at) / RFU TMCC2 (11721928_a_at) / Fold change /veh TMCC2 (11721928_a_at) / RFU IRGQ (11745062_a_at) / Fold change /veh IRGQ (11745062_a_at) / RFU FAM174B (11720279_a_at) / Fold change /veh FAM174B (11720279_a_at) / RFU TMPRSS4 (11748680_a_at) / Fold change /veh TMPRSS4 (11748680_a_at) / RFU FAM212B (11763350_a_at) / Fold change /veh FAM212B (11763350_a_at) / RFU PLEKHG5 (11743358_a_at) / Fold change /veh PLEKHG5 (11743358_a_at) / RFU ZSCAN30 (11745921_a_at) / Fold change /veh ZSCAN30 (11745921_a_at) / RFU CMKLR1 (11741424_a_at) / Fold change /veh CMKLR1 (11741424_a_at) / RFU LOC101060620 /// MAPK8IP1 (11723275_at) / Fold change /veh LOC101060620 /// MAPK8IP1 (11723275_at) / RFU SPTSSB (11747773_x_at) / Fold change /veh SPTSSB (11747773_x_at) / RFU PRSS12 (11739890_at) / Fold change /veh PRSS12 (11739890_at) / RFU BIN1 (11741810_x_at) / Fold change /veh BIN1 (11741810_x_at) / RFU WNT11 (11732464_a_at) / Fold change /veh WNT11 (11732464_a_at) / RFU C10orf10 (11716521_a_at) / Fold change /veh C10orf10 (11716521_a_at) / RFU C5orf56 (11738089_at) / Fold change /veh C5orf56 (11738089_at) / RFU CYB561 (11721691_x_at) / Fold change /veh CYB561 (11721691_x_at) / RFU ANKRD19P (11752326_a_at) / Fold change /veh ANKRD19P (11752326_a_at) / RFU OR2T12 /// OR2T33 /// OR2T8 (11738714_s_at) / Fold change /veh OR2T12 /// OR2T33 /// OR2T8 (11738714_s_at) / RFU VCAN (11748164_a_at) / Fold change /veh VCAN (11748164_a_at) / RFU JSRP1 (11732532_at) / Fold change /veh JSRP1 (11732532_at) / RFU KRTAP10-11 (11738290_x_at) / Fold change /veh KRTAP10-11 (11738290_x_at) / RFU MYO3A (11730013_a_at) / Fold change /veh MYO3A (11730013_a_at) / RFU EBF3 (11725865_a_at) / Fold change /veh EBF3 (11725865_a_at) / RFU CAMK2N1 (11719241_x_at) / Fold change /veh CAMK2N1 (11719241_x_at) / RFU C5orf56 (11738088_a_at) / Fold change /veh C5orf56 (11738088_a_at) / RFU OLFML3 (11715873_a_at) / Fold change /veh OLFML3 (11715873_a_at) / RFU LOC100653217 /// NTM (11731650_a_at) / Fold change /veh LOC100653217 /// NTM (11731650_a_at) / RFU MAPK11 (11762145_a_at) / Fold change /veh MAPK11 (11762145_a_at) / RFU FIZ1 (11724087_x_at) / Fold change /veh FIZ1 (11724087_x_at) / RFU OASL (11726364_x_at) / Fold change /veh OASL (11726364_x_at) / RFU SOX15 (11748057_x_at) / Fold change /veh SOX15 (11748057_x_at) / RFU CD79A (11719716_a_at) / Fold change /veh CD79A (11719716_a_at) / RFU HIST1H1D (11736915_at) / Fold change /veh HIST1H1D (11736915_at) / RFU CASKIN2 (11723855_a_at) / Fold change /veh CASKIN2 (11723855_a_at) / RFU LOC730098 (11760151_x_at) / Fold change /veh LOC730098 (11760151_x_at) / RFU OR4N2 (11742367_at) / Fold change /veh OR4N2 (11742367_at) / RFU PRRT2 (11749266_a_at) / Fold change /veh PRRT2 (11749266_a_at) / RFU SNX32 (11753110_a_at) / Fold change /veh SNX32 (11753110_a_at) / RFU CDHR5 (11726645_a_at) / Fold change /veh CDHR5 (11726645_a_at) / RFU RCAN1 (11760418_a_at) / Fold change /veh RCAN1 (11760418_a_at) / RFU FAM167A (11723789_a_at) / Fold change /veh FAM167A (11723789_a_at) / RFU FAM26E (11764081_at) / Fold change /veh FAM26E (11764081_at) / RFU ISYNA1 (11749810_s_at) / Fold change /veh ISYNA1 (11749810_s_at) / RFU ACY1 (11761880_at) / Fold change /veh ACY1 (11761880_at) / RFU 11764098_at / Fold change /veh 11764098_at / RFU SAMD14 (11745864_x_at) / Fold change /veh SAMD14 (11745864_x_at) / RFU NPB (11741838_a_at) / Fold change /veh NPB (11741838_a_at) / RFU TMPRSS6 (11731388_a_at) / Fold change /veh TMPRSS6 (11731388_a_at) / RFU KRTAP10-2 (11738614_at) / Fold change /veh KRTAP10-2 (11738614_at) / RFU ARHGAP8 /// PRR5-ARHGAP8 (11727945_x_at) / Fold change /veh ARHGAP8 /// PRR5-ARHGAP8 (11727945_x_at) / RFU KRTAP5-7 /// NADSYN1 (11734609_at) / Fold change /veh KRTAP5-7 /// NADSYN1 (11734609_at) / RFU RASL12 (11751679_a_at) / Fold change /veh RASL12 (11751679_a_at) / RFU CDKN2B (11736163_a_at) / Fold change /veh CDKN2B (11736163_a_at) / RFU PRF1 (11729649_at) / Fold change /veh PRF1 (11729649_at) / RFU, ZNF638 /// ZNF638-IT1 / Fold change vs veh, ZNF638 /// ZNF638-IT1 / RFU, PANK3 / Fold change vs veh, PANK3 / RFU, SH3YL1 / Fold change vs veh, SH3YL1 / RFU, ZEB2 / Fold change vs veh, ZEB2 / RFU, NRIP1 / Fold change vs veh, NRIP1 / RFU, PTTG1IP / Fold change vs veh, PTTG1IP / RFU, CAPN2 / Fold change vs veh, CAPN2 / RFU, MED14 / Fold change vs veh, MED14 / RFU, SNORA58 / Fold change vs veh, SNORA58 / RFU, C1orf63 / Fold change vs veh, C1orf63 / RFU, LRRFIP1 / Fold change vs veh, LRRFIP1 / RFU, NDUFAF7 / Fold change vs veh, NDUFAF7 / RFU, SLC12A2 / Fold change vs veh, SLC12A2 / RFU, IBTK / Fold change vs veh, IBTK / RFU, ESF1 / Fold change vs veh, ESF1 / Fold change vs veh, TMEM50B / RFU, TAOK1 / Fold change vs veh, TAOK1 / RFU, ACBD3 / Fold change vs veh, ACBD3 / RFU, TMA16 / Fold change vs veh, TMA16 / RFU, RWDD3 / Fold change vs veh, RWDD3 / RFU, BCAT1 / Fold change vs veh, BCAT1 / RFU, EDEM3 / Fold change vs veh, EDEM3 / RFU, TMEM33 / Fold change vs veh, TMEM33 / RFU, WDR75 / Fold change vs veh, WDR75 / RFU, AHCTF1 / Fold change vs veh, AHCTF1 / RFU, TFRC / Fold change vs veh, TFRC / RFU, ZDHHC17 / Fold change vs veh, ZDHHC17 / RFU, NOM1 / Fold change vs veh, NOM1 / RFU, ARL8B / Fold change vs veh, ARL8B / RFU, ZBTB11 / Fold change vs veh, ZBTB11 / RFU, TAMM41 / Fold change vs veh, TAMM41 / RFU, KIAA1704 /// LOC100996395 / Fold change vs veh, KIAA1704 /// LOC100996395 / RFU, ING1 / Fold change vs veh, ING1 / RFU, TRMT61B / Fold change vs veh, TRMT61B / RFU, FUBP3 / Fold change vs veh, FUBP3 / RFU, TP53 / Fold change vs veh, TP53 / RFU, TNKS2 / Fold change vs veh, TNKS2 / RFU, ZFP14 / Fold change vs veh, ZFP14 / RFU, ACTR2 / Fold change vs veh, ACTR2 / RFU, PPP3R1 / Fold change vs veh, PPP3R1 / RFU, PIK3R1 / Fold change vs veh, PIK3R1 / RFU, HNRNPA1 / Fold change vs veh, HNRNPA1 / RFU, RNF170 / Fold change vs veh, RNF170 / RFU, ZNF28 / Fold change vs veh, ZNF28 / RFU, RNGTT / Fold change vs veh, RNGTT / RFU, OGT / Fold change vs veh, OGT / RFU, BRD1 / Fold change vs veh, BRD1 / RFU, MARS / Fold change vs veh, MARS / RFU, ZNF655 / Fold change vs veh, ZNF655 / RFU, FAHD1 / Fold change vs veh, FAHD1 / RFU, BDP1 / Fold change vs veh, BDP1 / RFU, LRRCC1 / Fold change vs veh, LRRCC1 / RFU, ARID1A / Fold change vs veh, ARID1A / RFU, ZNF146 / Fold change vs veh, ZNF146 / RFU, ZNF330 / Fold change vs veh, ZNF330 / RFU, GPN3 / Fold change vs veh, GPN3 / RFU, C9orf123 / Fold change vs veh, C9orf123 / RFU, N4BP2L2 / Fold change vs veh, N4BP2L2 / RFU, ARFIP1 / Fold change vs veh, ARFIP1 / RFU, FAM179B / Fold change vs veh, FAM179B / RFU, BCL10 / Fold change vs veh, BCL10 / RFU, UHRF1BP1L / Fold change vs veh, UHRF1BP1L / RFU, BET1 / Fold change vs veh, BET1 / RFU, CNOT2 / Fold change vs veh, CNOT2 / RFU, ZNF268 / Fold change vs veh, ZNF268 / Fold change vs veh, ZNF507 / RFU, DGCR2 / Fold change vs veh, DGCR2 / RFU, WDSUB1 / Fold change vs veh, WDSUB1 / Fold change vs veh, HSP90B1 /// MIR3652 / RFU, ADSS / Fold change vs veh, ADSS / RFU, GK / Fold change vs veh, GK / RFU, ZNF148 / Fold change vs veh, ZNF148 / RFU, TAF9 / Fold change vs veh, TAF9 / RFU, SLC1A5 / Fold change vs veh, SLC1A5 / RFU, SLMO2 / Fold change vs veh, SLMO2 / RFU, ABCC4 / Fold change vs veh, ABCC4 / RFU, LOC101060439 /// RAP1B / Fold change vs veh, LOC101060439 /// RAP1B / RFU, RFX7 / Fold change vs veh, RFX7 / RFU, GTPBP10 / Fold change vs veh, GTPBP10 / RFU, CNEP1R1 / Fold change vs veh, CNEP1R1 / RFU, BIVM-ERCC5 /// ERCC5 / Fold change vs veh, BIVM-ERCC5 /// ERCC5 / RFU, ILF3 / Fold change vs veh, ILF3 / RFU 11762660_at / Fold change /veh 11762660_at / RFU VCAN (11757783_s_at) / Fold change /veh VCAN (11757783_s_at) / RFU DDX43 (11728927_at) / Fold change /veh DDX43 (11728927_at) / RFU KRT8 (11758188_x_at) / Fold change /veh KRT8 (11758188_x_at) / RFU NKD1 (11759106_at) / Fold change /veh NKD1 (11759106_at) / RFU SRD5A1 (11742802_a_at) / Fold change /veh SRD5A1 (11742802_a_at) / RFU TPSAB1 /// TPSB2 (11721975_s_at) / Fold change /veh TPSAB1 /// TPSB2 (11721975_s_at) / RFU GSTM3 (11746129_a_at) / Fold change /veh GSTM3 (11746129_a_at) / RFU IL23R (11737362_x_at) / Fold change /veh IL23R (11737362_x_at) / RFU TMEM51 (11727254_a_at) / Fold change /veh TMEM51 (11727254_a_at) / RFU PIWIL2 (11732686_x_at) / Fold change /veh PIWIL2 (11732686_x_at) / RFU ORM1 (11744905_x_at) / Fold change /veh ORM1 (11744905_x_at) / RFU CCDC152 (11743942_at) / Fold change /veh CCDC152 (11743942_at) / RFU ECM1 (11717891_a_at) / Fold change /veh ECM1 (11717891_a_at) / RFU IL23R (11748794_a_at) / Fold change /veh IL23R (11748794_a_at) / RFU TNFAIP8L3 (11732012_x_at) / Fold change /veh TNFAIP8L3 (11732012_x_at) / RFU MBOAT4 (11741988_at) / Fold change /veh MBOAT4 (11741988_at) / RFU 11764193_at / Fold change /veh 11764193_at / RFU TMEM53 (11763286_at) / Fold change /veh TMEM53 (11763286_at) / RFU MAGEB2 (11727129_at) / Fold change /veh MAGEB2 (11727129_at) / RFU TMEM200A (11744735_a_at) / Fold change /veh TMEM200A (11744735_a_at) / RFU CCDC152 (11751479_a_at) / Fold change /veh CCDC152 (11751479_a_at) / RFU FAM211A (11726209_a_at) / Fold change /veh FAM211A (11726209_a_at) / RFU RGS16 (11746705_a_at) / Fold change /veh RGS16 (11746705_a_at) / RFU VCAN (11755009_s_at) / Fold change /veh VCAN (11755009_s_at) / RFU RHOB (11743442_s_at) / Fold change /veh RHOB (11743442_s_at) / RFU RGS16 (11720943_a_at) / Fold change /veh RGS16 (11720943_a_at) / RFU RGS16 (11720944_at) / Fold change /veh RGS16 (11720944_at) / RFU, VPS4B / Fold change vs veh, VPS4B / RFU, CREB1 / Fold change vs veh, CREB1 / RFU, DNAJC13 / Fold change vs veh, DNAJC13 / RFU, GNAQ / Fold change vs veh, GNAQ / RFU, CDK5R1 / Fold change vs veh, CDK5R1 / RFU, ZRANB3 / Fold change vs veh, ZRANB3 / RFU, CUL4A / Fold change vs veh, CUL4A / RFU, CCNY / Fold change vs veh, CCNY / RFU, UFL1 / Fold change vs veh, UFL1 / RFU, COG3 / Fold change vs veh, COG3 / RFU, DIAPH2 / Fold change vs veh, DIAPH2 / RFU, SKA2 / Fold change vs veh, SKA2 / RFU, AFF3 / Fold change vs veh, AFF3 / RFU, LMF1 / Fold change vs veh, LMF1 / RFU, IPO11 / Fold change vs veh, IPO11 / RFU, DFFB / Fold change vs veh, DFFB / RFU, FOXP1 / Fold change vs veh, FOXP1 / RFU, CARD8 / Fold change vs veh, CARD8 / RFU, STRN3 / Fold change vs veh, STRN3 / RFU, ADK / Fold change vs veh, ADK / RFU, RASSF2 / Fold change vs veh, RASSF2 / RFU, WIPF1 / Fold change vs veh, WIPF1 / RFU, LARP1B / Fold change vs veh, LARP1B / RFU, RASA1 / Fold change vs veh, RASA1 / RFU, RB1 / Fold change vs veh, RB1 / RFU, PPFIA1 / Fold change vs veh, PPFIA1 / RFU, MAT2A / Fold change vs veh, MAT2A / RFU, CCT5 / Fold change vs veh, CCT5 / RFU, WDR92 / Fold change vs veh, WDR92 / RFU, CUX1 / Fold change vs veh, CUX1 / RFU, TTC7A / Fold change vs veh, TTC7A / RFU, TMEM135 / Fold change vs veh, TMEM135 / RFU, DEPTOR / Fold change vs veh, DEPTOR / RFU, CPM / Fold change vs veh, CPM / RFU, DNAJB6 / Fold change vs veh, DNAJB6 / RFU, CACNA2D3 / Fold change vs veh, CACNA2D3 / RFU, DTX4 / Fold change vs veh, DTX4 / RFU, TFCP2 / Fold change vs veh, TFCP2 / RFU, GMCL1 /// GMCL1P1 / Fold change vs veh, GMCL1 /// GMCL1P1 / RFU, AEBP2 / Fold change vs veh, AEBP2 / RFU, SNHG1 /// SNORD22 /// SNORD25 /// SNORD26 /// SNORD27 /// SNORD28 /// SNORD29 /// SNORD31 / Fold change vs veh, SNHG1 /// SNORD22 /// SNORD25 /// SNORD26 /// SNORD27 /// SNORD28 /// SNORD29 /// SNORD31 / Fold change (Aza/veh), C12orf56 (ProbeSet 11735607_a_at) / Fold change (ACY-1035/veh), C12orf56 (ProbeSet 11735607_a_at) / Fold change (Aza/veh), FGFR1OP (ProbeSet 11751329_s_at) / Fold change (ACY-1035/veh), FGFR1OP (ProbeSet 11751329_s_at) / Fold change (Aza/veh), VPS36 (ProbeSet 11739960_a_at) / Fold change (ACY-1035/veh), VPS36 (ProbeSet 11739960_a_at) / RFU SYPL1 (11715823_x_at) / Fold change /veh SYPL1 (11715823_x_at) / RFU IGFBP7 (11715501_s_at) / Fold change /veh IGFBP7 (11715501_s_at) / RFU REEP3 (11722064_at) / Fold change /veh REEP3 (11722064_at) / RFU IGLL1 (11728026_x_at) / Fold change /veh IGLL1 (11728026_x_at): dose or concentration left out as unconfirmed
Settings: ProbeSet 11728676_at; LIST B

Nc1ccc(-c2cccs2)cc1NC(=O)c1ccc2c(c1)cc(C1CC1)n2CCN1CCOCC1 [ACY-1035]
Fold change vs veh, MED14: 0.95
